Measurements reported in patent US20090105266A1, “Organic compounds” (priority 2007, published 2009).

Each compound was assayed against T1, mGluR5 (Homo sapiens, UniProt P41594) (assay: inhibition of the glutamate (agonist) induced elevation of the inositol phosphate turnover). Conditions: inhibition of glutamate induced elevation of inositol phosphate turnover at 0.1 μM.
T1 construct: expressed in transfected cells
T1 sequence (P41594 21-1180 isoform P41594-2 limits assumed): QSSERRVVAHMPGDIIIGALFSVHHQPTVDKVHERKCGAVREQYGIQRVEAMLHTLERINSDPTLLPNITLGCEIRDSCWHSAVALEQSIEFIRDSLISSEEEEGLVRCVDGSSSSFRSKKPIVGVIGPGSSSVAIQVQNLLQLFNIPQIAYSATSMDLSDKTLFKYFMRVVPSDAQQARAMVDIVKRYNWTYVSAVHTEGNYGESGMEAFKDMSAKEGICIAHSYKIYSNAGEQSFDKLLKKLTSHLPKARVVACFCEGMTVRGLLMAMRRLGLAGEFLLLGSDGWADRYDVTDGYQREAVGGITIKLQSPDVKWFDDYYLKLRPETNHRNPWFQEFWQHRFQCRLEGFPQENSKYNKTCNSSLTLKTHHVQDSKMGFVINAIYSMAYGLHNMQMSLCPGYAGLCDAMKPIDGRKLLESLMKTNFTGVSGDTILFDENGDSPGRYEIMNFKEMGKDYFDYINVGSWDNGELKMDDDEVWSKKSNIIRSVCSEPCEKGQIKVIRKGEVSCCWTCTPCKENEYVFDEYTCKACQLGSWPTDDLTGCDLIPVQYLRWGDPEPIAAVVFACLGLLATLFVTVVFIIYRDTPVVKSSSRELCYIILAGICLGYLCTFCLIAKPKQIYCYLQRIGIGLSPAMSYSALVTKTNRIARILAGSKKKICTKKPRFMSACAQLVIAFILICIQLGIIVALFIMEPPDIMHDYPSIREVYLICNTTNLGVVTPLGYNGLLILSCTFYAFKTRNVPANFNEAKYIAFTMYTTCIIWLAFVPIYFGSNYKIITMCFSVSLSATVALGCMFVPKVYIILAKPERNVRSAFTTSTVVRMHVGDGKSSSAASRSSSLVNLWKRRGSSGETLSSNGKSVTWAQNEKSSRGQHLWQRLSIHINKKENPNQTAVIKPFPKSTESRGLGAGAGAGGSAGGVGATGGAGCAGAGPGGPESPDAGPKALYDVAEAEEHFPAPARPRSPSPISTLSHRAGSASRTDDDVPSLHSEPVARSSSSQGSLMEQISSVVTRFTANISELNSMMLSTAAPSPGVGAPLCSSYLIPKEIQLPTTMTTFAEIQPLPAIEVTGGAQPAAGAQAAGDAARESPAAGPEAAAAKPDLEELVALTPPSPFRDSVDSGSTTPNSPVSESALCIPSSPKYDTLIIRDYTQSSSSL
Format: cell-based
Text: This can be determined in vitro for example at recombinant human metabotropic glutamate receptors, especially PLC-coupled subtypes thereof such as mGluR5, using different procedures like, for example, measurement of the inhibition of the agonist induced elevation of intracellular Ca^2+ concentration in accordance with L. P. Daggett et al., Neuropharm. Vol. 34, pages 871-886 (1995), P. J. Flor et al., J. Neurochem. Vol. 67, pages 58-63 (1996) or by determination to what extent the agonist induced elevation of the inositol phosphate turnover is inhibited as described by T. Knoepfel et al., Eur. J. Pharmacol. Vol. 288, pages 389-392 (1994), L. P. Daggett et al., Neuropharm. Vol. 67, pages 58-63 (1996) and references cited therein. Isolation and expression of human mGluR subtypes are described in U.S. Pat. No. 5,521,297. Selected agents of the invention show IC50 values for the inhibition of the agonist (e.g. glutamate or quisqualate) induced elevation of intracellular Ca2+ concentration or the agonist (e.g. glutamate or quisqualate) induced inositol phosphate turnover, measured in recombinant cells expressing hmGluR^5a of about 0.1 nM to about 50 μM.
Activity of compounds of the present invention was examined by determination to what extent the agonist induced elevation of the inositol phosphate turnover is inhibited as described by T. Knoepfel et al., Eur. J. Pharmacol. Vol. 288, pages 389-392 (1994), L. P. Daggett et al., Neuropharm. Vol. 67, pages 58-63 (1996) and references cited therein.
The table below represents percentages of inhibition of the glutamate induced elevation of the inositol phosphate turnover at a concentration of 0.1 μM.
With `CCCCCn1c(-c2cnc(Nc3ccc(C)nc3)c(Cl)c2)nc2ccccc21` [Example 19, [3-Chloro-5-(1-pentyl-1H-benzoimidazol-2-yl)-pyridin-2-yl]-(6-methyl-pyridin-3-yl)-amine] the inhibition at 0.1 µM was 57%.
Compound `Cc1ccc(Nc2ncc(-c3nc4ccccc4n3CC(C)C)cc2Cl)cn1` [Example 20, [3-Chloro-5-(1-isobutyl-1H-benzoimidazol-2-yl)-pyridin-2-yl]-(6-methyl-pyridin-3-yl)-amine] has an inhibition at 0.1 µM of 98%.
Compound `CCCn1c(-c2cnc(Nc3ccc(C)nc3)c(Cl)c2)nc2cc(C(F)(F)F)ccc21` [Example 21, [3-Chloro-5-(1-propyl-5-trifluoromethyl-1H-benzoimidazol-2-yl)-pyridin-2-yl]-(6-methyl-pyridin-3-yl)-amine] has an inhibition at 0.1 µM of 65%.
In the case of `CCCn1c(-c2cnc(Nc3ccc(C)nc3)c(Cl)c2)nc2cc(C)ccc21` [Example 22, [3-Chloro-5-(5-methyl-1-propyl-1H-benzoimidazol-2-yl)-pyridin-2-yl]-(6-methyl-pyridin-3-yl)-amine], the inhibition at 0.1 µM is reported as 97%.
With `CCCn1c(-c2cnc(Nc3ccc(C)nc3)c(Cl)c2)nc2ccc(C)cc21` [Example 23, [3-Chloro-5-(6-methyl-1-propyl-1H-benzoimidazol-2-yl)-pyridin-2-yl]-(6-methyl-pyridin-3-yl)-amine] the inhibition at 0.1 µM was 84%.
With `CCCn1c(-c2cnc(Nc3ccc(C)nc3)c(Cl)c2)nc2cccc(C)c21` [Example 24, [3-Chloro-5-(7-methyl-1-propyl-1H-benzoimidazol-2-yl)-pyridin-2-yl]-(6-methyl-pyridin-3-yl)-amine] the inhibition at 0.1 µM was 101%.
For `CCCn1c(-c2cnc(Nc3ccc(C)nc3)c(Cl)c2)nc2c(C)cccc21` [Example 25, [3-Chloro-5-(4-methyl-1-propyl-1H-benzoimidazol-2-yl)-pyridin-2-yl]-(6-methyl-pyridin-3-yl)-amine], the inhibition at 0.1 µM was 97%.
With `CCCn1c(-c2cnc(Nc3ccc(C)nc3)c(Cl)c2)nc2ccc(C)c(C)c21` [Example 26, [3-Chloro-5-(6,7-dimethyl-1-propyl-1H-benzoimidazol-2-yl)-pyridin-2-yl]-(6-methyl-pyridin-3-yl)-amine] the inhibition at 0.1 µM was 98%.
Work on `CCCn1c(-c2cnc(Nc3ccc(C)nc3)c(Cl)c2)nc2c(C)ccc(C)c21` [Example 29, [3-Chloro-5-(4,7-dimethyl-1-propyl-1H-benzoimidazol-2-yl)-pyridin-2-yl]-(6-methyl-pyridin-3-yl)-amine] yielded an inhibition at 0.1 µM of 99%.
`CCCn1c(-c2cnc(Nc3ccc(C)nc3)c(Cl)c2)nc2cc(F)c(F)cc21` [Example 30, [3-Chloro-5-(5,6-difluoro-1-propyl-1H-benzoimidazol-2-yl)-pyridin-2-yl]-(6-methyl-pyridin-3-yl)-amine] showed an inhibition at 0.1 µM of 99%.
In the case of `Cc1ccc(Nc2ncc(-c3nc4cccc5c4n3CCC5)cc2Cl)cn1` [Example 31, [3-Chloro-5-(5,6-dihydro-4H-imidazo[4,5,1-ij]quinolin-2-yl)-pyridin-2-yl]-(6-methyl-pyridin-3-yl)-amine], the inhibition at 0.1 µM is reported as 90%.
Work on `CCCn1c(-c2cnc(Nc3ccc(C)nc3)c(Cl)c2)nc2cc(I)cc(Cl)c21` [Example 34b, [3-Chloro-5-(7-chloro-5-iodo-1-propyl-1H-benzoimidazol-2-yl)-pyridin-2-yl]-(6-methyl-pyridin-3-yl)-amine] yielded an inhibition at 0.1 µM of 97%.
`CCCn1c(-c2cnc(Nc3ccc(C)nc3)c(Cl)c2)nc2cc(Cl)ccc21` [Example 45, [3-Chloro-5-(5-chloro-1-propyl-1H-benzoimidazol-2-yl)-pyridin-2-yl]-(6-methyl-pyridin-3-yl)-amine] gave an inhibition at 0.1 µM of 91%.
In the case of `CCCn1c(-c2cnc(Nc3ccc(C)nc3)c(Cl)c2)nc2c(Cl)cccc21` [Example 47, [3-Chloro-5-(4-chloro-1-propyl-1H-benzoimidazol-2-yl)-pyridin-2-yl]-(6-methyl-pyridin-3-yl)-amine], the inhibition at 0.1 µM is reported as 100%.
`CCCn1c(-c2cnc(Nc3ccc(C)nc3)c(Cl)c2)nc2cccc(Cl)c21` [Example 48, [3-Chloro-5-(7-chloro-1-propyl-1H-benzoimidazol-2-yl)-pyridin-2-yl]-(6-methyl-pyridin-3-yl)-amine] showed an inhibition at 0.1 µM of 101%.
Compound `CCCn1c(-c2cnc(Nc3ccc(Cl)cc3)c(Cl)c2)nc2cccc(Cl)c21` [Example 52, [3-Chloro-5-(7-chloro-1-propyl-1H-benzoimidazol-2-yl)-pyridin-2-yl]-(4-chloro-phenyl)-amine] has an inhibition at 0.1 µM of 99%.
`CCCn1c(-c2cnc(Nc3ccccc3F)c(Cl)c2)nc2cccc(Cl)c21` [Example 53, [3-Chloro-5-(7-chloro-1-propyl-1H-benzoimidazol-2-yl)-pyridin-2-yl]-(2-fluoro-phenyl)-amine] showed an inhibition at 0.1 µM of 95%.
`CCCn1c(-c2cnc(Nc3ccc(F)cc3)c(Cl)c2)nc2cccc(Cl)c21` [Example 54, [3-Chloro-5-(7-chloro-1-propyl-1H-benzoimidazol-2-yl)-pyridin-2-yl]-(4-fluoro-phenyl)-amine] showed an inhibition at 0.1 µM of 97%.
`CCCn1c(-c2cnc(Nc3cccc(F)c3)c(Cl)c2)nc2cccc(Cl)c21` [Example 55, [3-Chloro-5-(7-chloro-1-propyl-1H-benzoimidazol-2-yl)-pyridin-2-yl]-(3-fluoro-phenyl)-amine] was tested, and the inhibition at 0.1 µM was 63%.
`CCCn1c(-c2cnc(Nc3ccc(C#N)cc3)c(Cl)c2)nc2cccc(Cl)c21` [Example 56, 4-[3-Chloro-5-(7-chloro-1-propyl-1H-benzoimidazol-2-yl)-pyridin-2-ylamino]-benzonitrile] was tested, and the inhibition at 0.1 µM was 100%.
With `CCCn1c(-c2cnc(Nc3ccc(F)c(F)c3)c(Cl)c2)nc2cccc(Cl)c21` [Example 57, [3-Chloro-5-(7-chloro-1-propyl-1H-benzoimidazol-2-yl)-pyridin-2-yl]-(3,4-difluoro-phenyl)-amine] the inhibition at 0.1 µM was 93%.
With `CCCn1c(-c2cnc(Nc3cccc(F)c3F)c(Cl)c2)nc2cccc(Cl)c21` [Example 58, [3-Chloro-5-(7-chloro-1-propyl-1H-benzoimidazol-2-yl)-pyridin-2-yl]-(2,3-difluoro-phenyl)-amine] the inhibition at 0.1 µM was 40%.
`CCCn1c(-c2cnc(Nc3ccncc3)c(Cl)c2)nc2cccc(Cl)c21` [Example 59, [3-Chloro-5-(7-chloro-1-propyl-1H-benzoimidazol-2-yl)-pyridin-2-yl]-pyridin-4-yl-amine] gave an inhibition at 0.1 µM of 51%.
Work on `CCCn1c(-c2cnc(Nc3ccc(C)nn3)c(Cl)c2)nc2cccc(Cl)c21` [Example 60, [3-Chloro-5-(7-chloro-1-propyl-1H-benzoimidazol-2-yl)-pyridin-2-yl]-(6-methyl-pyridazin-3-yl)-amine] yielded an inhibition at 0.1 µM of 87%.
In the case of `CCCn1c(-c2cnc(Nc3ccc4nccnc4c3)c(Cl)c2)nc2cccc(Cl)c21` [Example 61, [3-Chloro-5-(7-chloro-1-propyl-1H-benzoimidazol-2-yl)-pyridin-2-yl]-quinoxalin-6-yl-amine], the inhibition at 0.1 µM is reported as 96%.
`CCCn1c(-c2cnc(Nc3cnc(C)cn3)c(Cl)c2)nc2cccc(Cl)c21` [Example 62, [3-Chloro-5-(7-chloro-1-propyl-1H-benzoimidazol-2-yl)-pyridin-2-yl]-(5-methyl-pyrazin-2-yl)-amine] showed an inhibition at 0.1 µM of 99%.
`CCCn1c(-c2cnc(Nc3cnc4ccccc4c3)c(Cl)c2)nc2cccc(Cl)c21` [Example 63, [3-Chloro-5-(7-chloro-1-propyl-1H-benzoimidazol-2-yl)-pyridin-2-yl]-quinolin-3-yl-amine] showed an inhibition at 0.1 µM of 28%.
`CCCn1c(-c2cnc(Nc3ccc4ncccc4c3)c(Cl)c2)nc2cccc(Cl)c21` [Example 64, [3-Chloro-5-(7-chloro-1-propyl-1H-benzoimidazol-2-yl)-pyridin-2-yl]-quinolin-6-yl-amine] was tested, and the inhibition at 0.1 µM was 17%.
For `CCCn1c(-c2cnc(Nc3ccc(C)cc3)c(Cl)c2)nc2ccc(F)cc21` [Example 65, [3-Chloro-5-(6-fluoro-1-propyl-1H-benzoimidazol-2-yl)-pyridin-2-yl]-p-tolyl-amine], the inhibition at 0.1 µM was 92%.
For `CCCn1c(-c2cnc(Nc3ccc(OC)cc3)c(Cl)c2)nc2ccc(F)cc21` [Example 66, [3-Chloro-5-(6-fluoro-1-propyl-1H-benzoimidazol-2-yl)-pyridin-2-yl]-(4-methoxy-phenyl)-amine], the inhibition at 0.1 µM was 93%.
`CCCn1c(-c2cnc(Nc3c(F)cccc3F)c(Cl)c2)nc2cccc(Cl)c21` [Example 67, [3-Chloro-5-(7-chloro-1-propyl-1H-benzoimidazol-2-yl)-pyridin-2-yl]-(2,6-difluoro-phenyl)-amine] gave an inhibition at 0.1 µM of 42%.
With `CCCn1c(-c2cnc(Nc3ccc(N(C)C)nc3)c(Cl)c2)nc2ccc(F)cc21` [Example 68, N-5-[3-Chloro-5-(6-fluoro-1-propyl-1H-benzoimidazol-2-yl)-pyridin-2-yl]-N-2,N-2-dimethyl-pyridine-2,5-diamine] the “mGluR5-activity in [%] inhibition at 0.1 μM” value was 43%.
In the case of `CCCn1c(-c2cnc(Nc3ccc(N(C)C)nc3)c(Cl)c2)nc2ccccc21` [Example 69, N-5-[3-Chloro-5-(1-propyl-1H-benzoimidazol-2-yl)-pyridin-2-yl]-N2,N-2-dimethyl-pyridine-2,5-diamine], the “mGluR5-activity in [%] inhibition at 0.1 μM” value is reported as 32%.
